# In patent US9266835B2, “Quinoline derivatives useful as CB-1 inverse agonists” (JANSSEN PHARMACEUTICA NV, priority 2014, dated 2016):
# Legend:
# [1] = target: Human CB2R (Cannabinoid receptor 2) (Homo sapiens (Human), UniProt P34972); assay: CB-2 in vitro cAMP assay (HTRF), inverse agonism; type: cell-based; conditions: mean where tested more than once
# [2] = target: Human CB1R (Cannabinoid receptor 1) (Homo sapiens (Human), UniProt P21554); assay: CB-1 in vitro cAMP assay (HTRF), inverse agonism; type: cell-based; conditions: mean where tested more than once
# Chain of Human CB1R (Cannabinoid receptor 1) (P21554 whole entry): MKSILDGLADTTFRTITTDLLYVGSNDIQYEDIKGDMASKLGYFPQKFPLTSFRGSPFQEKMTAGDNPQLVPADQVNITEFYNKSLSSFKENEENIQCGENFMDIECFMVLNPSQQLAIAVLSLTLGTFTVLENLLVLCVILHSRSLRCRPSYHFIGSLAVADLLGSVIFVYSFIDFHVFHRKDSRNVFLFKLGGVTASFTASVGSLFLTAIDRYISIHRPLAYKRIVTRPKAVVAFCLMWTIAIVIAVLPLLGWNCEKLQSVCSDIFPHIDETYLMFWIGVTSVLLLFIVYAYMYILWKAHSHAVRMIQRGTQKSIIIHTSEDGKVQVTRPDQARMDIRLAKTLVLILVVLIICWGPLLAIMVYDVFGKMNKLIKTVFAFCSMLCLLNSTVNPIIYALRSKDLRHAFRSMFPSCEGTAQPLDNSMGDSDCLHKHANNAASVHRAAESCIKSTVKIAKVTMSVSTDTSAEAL
# Chain of Human CB2R (Cannabinoid receptor 2) (P34972 whole entry): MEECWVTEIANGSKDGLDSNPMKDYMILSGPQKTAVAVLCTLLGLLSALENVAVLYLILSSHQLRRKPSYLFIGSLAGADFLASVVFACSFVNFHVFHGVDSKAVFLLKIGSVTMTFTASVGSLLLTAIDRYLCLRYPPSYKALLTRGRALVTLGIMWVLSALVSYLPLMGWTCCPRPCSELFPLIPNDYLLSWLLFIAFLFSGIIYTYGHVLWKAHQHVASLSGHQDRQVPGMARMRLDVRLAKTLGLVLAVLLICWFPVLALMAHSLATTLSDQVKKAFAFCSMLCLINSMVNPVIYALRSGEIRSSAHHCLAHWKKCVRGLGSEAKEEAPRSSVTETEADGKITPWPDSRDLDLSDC
Structure (SMILES),EC50 [1],EC50 [2]
"O=c1cc(/C=C/c2cccc(F)c2)c2cc(C(c3ccccc3)c3ccc(Cl)cc3)ccc2[nH]1 (stereo not shown) [Compound 32, 6-[(4-Chlorophenyl)(phenyl)methyl]-4-[(E)-2-(3-fluorophenyl)ethenyl]quinolin-2(1H)-one]",> 10000 nM,3200 nM
"O=c1cc(NC2CCNCC2)c2cc(C(c3ccc(Cl)cc3)c3nccs3)ccc2[nH]1 (stereo not shown) [Compound 39, 6-((4-chlorophenyl)(thiazol-2-yl)methyl)-4-(piperidin-4-ylamino)quinolin-2(1H)-one]",> 10000 nM,604 nM
"O=c1cc(/C=C/c2cccc(F)c2)c2cc(C(c3ccc(Cl)cc3)c3ccsc3)ccc2[nH]1 (stereo not shown) [Compound 16, 6-[(4-Chlorophenyl)(thiophen-3-yl)methyl]-4-[(E)-2-(3-fluorophenyl)ethenyl]quinolin-2(1H)-one]",90 nM,83 nM
"O=c1cc(/C=C/c2ccccc2)c2cc(C(c3ccc(Cl)cc3)c3nccs3)ccc2[nH]1 (stereo not shown) [Compound 25, (E)-6-((4-chlorophenyl)(thiazol-2-yl)methyl)-4-styrylquinolin-2(1H)-one]",> 10000 nM,816 nM
"O=C(O)Cc1ccc(Nc2cc(=O)[nH]c3ccc(C(c4ccc(Cl)cc4)c4ccc(Cl)cc4)cc23)cc1 [Compound 125, [4-({6-[Bis(4-chlorophenyl)methyl]-2-oxo-1,2-dihydroquinolin-4-yl}amino)phenyl]acetic acid]",> 10000 nM,2480 nM
"CC(=O)N1CCN(c2cc(OS(=O)(=O)C(F)(F)F)nc3ccc(C(c4ccc(Cl)cc4)c4nccs4)cc23)CC1 (stereo not shown) [Compound 522, 4-(4-Acetylpiperazin-1-yl)-6-[(4-chlorophenyl)(1,3-thiazol-2-yl)methyl]quinolin-2-yl trifluoromethanesulfonate]",> 10000 nM,> 10000 nM
"NC(=O)c1ccc(Nc2cc(=O)[nH]c3ccc(C(c4ccc(Cl)cc4)c4ccc(Cl)cc4)cc23)cc1 [Compound 87, 4-({6-[Bis(4-chlorophenyl)methyl]-2-oxo-1,2-dihydroquinolin-4-yl}amino)benzamide]",> 10000 nM,3150 nM
O=c1cc(Nc2ccc(CC(F)(F)F)cc2)c2cc(C(c3ccc(Cl)cc3)c3ccc(Cl)cc3)cc(Br)c2[nH]1 [Compound 93],> 10000 nM,15 nM
"O=c1cc(Nc2ccc(Cl)c(F)c2)c2cc(C(c3ccc(Cl)cc3)c3ccc(Cl)cc3)ccc2[nH]1 [Compound 83, 6-[Bis(4-chlorophenyl)methyl]-4-[(4-chloro-3-fluorophenyl)amino]quinolin-2(1H)-one]",> 10000 nM,11 nM
"NC(=O)COc1ccc(Nc2cc(=O)[nH]c3ccc(C(c4ccc(Cl)cc4)c4ccc(Cl)cc4)cc23)cc1 [Compound 111, 2-(4-((6-(bis(4-chlorophenyl)methyl)-2-oxo-1,2-dihydroquinolin-4-yl)amino)phenoxy)acetamide]",> 10000 nM,99 nM
O=C(O)COc1cc(C(c2ccc(Cl)cc2)c2ccc(Cl)cc2)cc2c(NC3CCN(S(=O)(=O)C(F)(F)F)CC3)cc(=O)[nH]c12 [Compound 545],> 10000 nM,4900 nM
"OC(c1ccc(Cl)cc1)(c1ccsc1)c1ccc2nccc(/C=C/c3ccccc3)c2c1 (stereo not shown) [Compound 507, (4-Chlorophenyl){4-[(E)-2-phenylethenyl]quinolin-6-yl}thiophen-3-ylmethanol]",> 10000 nM,5480 nM

# The next lines start with the values.
EC50 [1],EC50 [2],Structure (SMILES)
> 10000 nM,322 nM,"O=c1cc(N2CCN(S(=O)(=O)C(F)(F)F)CC2)c2cc(C(c3ccc(Cl)cc3)c3nccs3)ccc2[nH]1 (stereo not shown) [Compound 35, 6-[(4-Chlorophenyl)(1,3-thiazol-2-yl)methyl]-4-{4-[(trifluoromethyl)sulfonyl]-piperazin-1-yl}quinolin-2(1H)-one]"
> 10000 nM,24 nM,"Cn1c(=O)cc(NC2CCN(S(=O)(=O)C(F)(F)F)CC2)c2cc(C(c3ccc(Cl)cc3)c3ccc(Cl)cc3)ccc21 [Compound #49, 6-[bis(4-chlorophenyl)methyl]-1-methyl-4-[[1-(trifluoromethane)sulfonylpiperidin-4-yl]amino]-1,2-dihydroquinolin-2-one]"
> 10000 nM,36 nM,"CC(Nc1cc(=O)[nH]c2ccc(C(c3ccc(Cl)cc3)c3ccc(Cl)cc3)cc12)c1cccc(C(F)(F)F)c1 (stereo not shown) [Compound 74, 6-[Bis(4-chlorophenyl)methyl]-4-({1-[3-(trifluoromethyl)phenyl]ethyl}amino)quinolin-2(1H)-one]"
> 10000 nM,103 nM,"CC(C)(C)OC(=O)CCN1CCC(Nc2cc(=O)[nH]c3ccc(C(c4ccc(Cl)cc4)c4ccc(Cl)cc4)cc23)CC1 [Compound 114, tert-butyl 3-(4-((6-(bis(4-chlorophenyl)methyl)-2-oxo-1,2-dihydroquinolin-4-yl)amino)piperidin-1-yl)propanoate]"
240 nM,159 nM,"O=C(O)c1ccc(S(=O)(=O)N2CCC(Nc3cc(=O)[nH]c4ccc(C(c5ccc(Cl)cc5)c5ccc(Cl)cc5)cc34)CC2)cc1 [Compound 122, 4-((4-((6-(bis(4-chlorophenyl)methyl)-2-oxo-1,2-dihydroquinolin-4-yl)amino)piperidin-1-yl)sulfonyl)benzoic acid]"
8280 nM,29 nM,"COc1ccc(C(O)(c2ccc(Cl)cc2)c2ccc3[nH]c(=O)cc(NC4CCN(S(=O)(=O)C(F)(F)F)CC4)c3c2)cc1 (stereo not shown) [Compound 51, 6-[(4-chlorophenyl)(hydroxy)(4-methoxyphenyl)methyl]-4-[[1-(trifluoromethane)sulfonylpiperidin-4-yl]amino]-1,2-dihydroquinolin-2-one]"
6500 nM,1550 nM,"NC(=O)CC(=O)N1CCC(Nc2cc(=O)[nH]c3ccc(C(c4ccc(Cl)cc4)c4ccc(Cl)cc4)cc23)CC1 [Compound 106, 3-(4-((6-(bis(4-chlorophenyl)methyl)-2-oxo-1,2-dihydroquinolin-4-yl)amino)piperidin-1-yl)-3-oxopropanamide]"
> 10000 nM,25 nM,"COC(=O)c1ccc(C(=O)N2CCC(Nc3cc(=O)[nH]c4ccc(C(c5ccc(Cl)cc5)c5ccc(Cl)cc5)cc34)CC2)cc1 [Compound 113, Methyl 4-{[4-({6-[bis(4-chlorophenyl)methyl]-2-oxo-1,2-dihydroquinolin-4-yl}amino)piperidin-1-yl]carbonyl}benzoate]"
3930 nM,251 nM,"O=C(O)c1ccc(S(=O)(=O)N2CCC(Nc3cc(=O)[nH]c4ccc(C(c5ccc(Cl)cc5)c5ccc(Cl)cc5)cc34)CC2)o1 [Compound 131, 5-{[4-({6-[Bis(4-chlorophenyl)methyl]-2-oxo-1,2-dihydroquinolin-4-yl}amino)piperidin-1-yl]sulfonyl}furan-2-carboxylic acid]"
> 10000 nM,302 nM,"NC(=O)CCC(=O)N1CCC(Nc2cc(=O)[nH]c3ccc(C(c4ccc(Cl)cc4)c4ccc(Cl)cc4)cc23)CC1 [Compound 112, 4-[4-({6-[Bis(4-chlorophenyl)methyl]-2-oxo-1,2-dihydroquinolin-4-yl}amino)piperidin-1-yl]-4-oxobutanamide]"
> 10000 nM,6 nM,"O=c1cc(NC2CCN(c3ccccc3)CC2)c2cc(C(c3ccc(Cl)cc3)c3ccc(Cl)cc3)ccc2[nH]1 [Compound 60, 6-[bis(4-chlorophenyl)methyl]-4-[(1-phenylpiperidin-4-yl)amino]quinolin-2-ol]"
